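Assay format: 96-well plates, 48-hour exposure. At the GI50, growth is halved. TGI: concentration producing complete growth inhibition.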
Legend:
Experiment in all cases: NCI-60 cell line screen, 48 h
SK-OV-3 ovarian = system: SK-OV-3 ovarian
RPMI-8226 leukemia = system: RPMI-8226 leukemia
A498 renal = system: A498 renal
CAKI-1 renal = system: CAKI-1 renal
COLO 205 colon = system: COLO 205 colon
NCI-H23 lung = system: NCI-H23 lung
HCT-15 colon = system: HCT-15 colon
MDA-MB-435 = system: MDA-MB-435
TK-10 renal = system: TK-10 renal
HOP-92 NSCLC = system: HOP-92 NSCLC
SNB-19 CNS = system: SNB-19 CNS
M14 melanoma = system: M14 melanoma
SW-620 colon = system: SW-620 colon
HS 578T breast = system: HS 578T breast
U251 CNS = system: U251 CNS
786-0 renal = system: 786-0 renal
UACC-62 melanoma = system: UACC-62 melanoma
HL-60(TB) leukemia = system: HL-60(TB) leukemia
SR leukemia = system: SR leukemia
NCI/ADR-RES ovarian = system: NCI/ADR-RES ovarian
SK-MEL-28 melanoma = system: SK-MEL-28 melanoma
UO-31 renal = system: UO-31 renal
ACHN renal = system: ACHN renal
A549 NSCLC = system: A549 NSCLC
HOP-62 NSCLC = system: HOP-62 NSCLC
LOX IMVI melanoma = system: LOX IMVI melanoma
SF-295 CNS = system: SF-295 CNS
PC-3 prostate = system: PC-3 prostate
OVCAR-8 ovarian = system: OVCAR-8 ovarian
MOLT-4 leukemia = system: MOLT-4 leukemia
HCC-2998 colon = system: HCC-2998 colon
SK-MEL-2 melanoma = system: SK-MEL-2 melanoma
MDA-MB-231 breast = system: MDA-MB-231 breast
KM12 colon = system: KM12 colon
MALME-3M melanoma = system: MALME-3M melanoma
NCI-H226 lung = system: NCI-H226 lung
SF-268 CNS = system: SF-268 CNS
OVCAR-4 ovarian = system: OVCAR-4 ovarian
SK-MEL-5 melanoma = system: SK-MEL-5 melanoma
SF-539 CNS = system: SF-539 CNS
NCI-H522 lung = system: NCI-H522 lung
EKVX NSCLC = system: EKVX NSCLC
K-562 leukemia = system: K-562 leukemia
UACC-257 melanoma = system: UACC-257 melanoma
IGROV1 ovarian = system: IGROV1 ovarian
MCF7 breast = system: MCF7 breast
NCI-H460 lung = system: NCI-H460 lung
OVCAR-5 ovarian = system: OVCAR-5 ovarian
HT29 colon = system: HT29 colon
OVCAR-3 ovarian = system: OVCAR-3 ovarian
RXF 393 renal = system: RXF 393 renal
DU-145 prostate = system: DU-145 prostate
SNB-75 CNS = system: SNB-75 CNS
BT-549 breast = system: BT-549 breast
T-47D breast = system: T-47D breast
HCT-116 colon = system: HCT-116 colon
SN12C renal = system: SN12C renal

C=C(C)[C@@H]1CCC[C@]2(COS(=O)(=O)c3ccc(C)cc3)CC[C@]3(C)[C@@H](CC[C@@H]4[C@@]5(C)CCCNC(C)(C)[C@@H]5CC[C@]43C)[C@@H]12
GI50 (SK-OV-3 ovarian): 1.87 µM
TGI (SK-OV-3 ovarian): 3.3 µM
GI50 (RPMI-8226 leukemia): 1.86 µM
TGI (RPMI-8226 leukemia): 4.54 µM
GI50 (A498 renal): 1.63 µM
TGI (A498 renal): 3.14 µM
GI50 (CAKI-1 renal): 1.74 µM
TGI (CAKI-1 renal): 3.15 µM

CCOC(=O)N1CCC2(CC1)C[C@](C)(C(C)=O)C(C)O2 (stereo not given in full)
TGI (SK-OV-3 ovarian): > 100 µM
TGI (COLO 205 colon): > 100 µM
TGI (NCI-H23 lung): > 100 µM
TGI (HCT-15 colon): > 100 µM
TGI (MDA-MB-435): > 100 µM
TGI (RPMI-8226 leukemia): > 100 µM
TGI (TK-10 renal): > 100 µM
TGI (HOP-92 NSCLC): > 100 µM
TGI (SNB-19 CNS): > 100 µM
TGI (M14 melanoma): > 100 µM
TGI (SW-620 colon): > 100 µM
TGI (HS 578T breast): > 100 µM
TGI (U251 CNS): > 100 µM
TGI (786-0 renal): > 100 µM
TGI (UACC-62 melanoma): > 100 µM
TGI (HL-60(TB) leukemia): 17.8 µM
TGI (SR leukemia): > 100 µM
TGI (NCI/ADR-RES ovarian): > 100 µM
TGI (SK-MEL-28 melanoma): > 100 µM
TGI (UO-31 renal): > 100 µM
TGI (ACHN renal): > 100 µM
TGI (A549 NSCLC): > 100 µM
TGI (HOP-62 NSCLC): > 100 µM
TGI (LOX IMVI melanoma): > 100 µM
TGI (SF-295 CNS): > 100 µM
TGI (PC-3 prostate): > 100 µM
TGI (OVCAR-8 ovarian): > 100 µM
TGI (MOLT-4 leukemia): > 100 µM
TGI (HCC-2998 colon): > 100 µM
TGI (SK-MEL-2 melanoma): > 100 µM
TGI (MDA-MB-231 breast): > 100 µM
TGI (KM12 colon): > 100 µM
TGI (MALME-3M melanoma): > 100 µM
TGI (NCI-H226 lung): > 100 µM
TGI (SF-268 CNS): > 100 µM
TGI (OVCAR-4 ovarian): > 100 µM
TGI (SK-MEL-5 melanoma): > 100 µM
TGI (SF-539 CNS): > 100 µM
TGI (NCI-H522 lung): > 100 µM
TGI (A498 renal): > 100 µM
TGI (CAKI-1 renal): > 100 µM
TGI (EKVX NSCLC): > 100 µM
TGI (K-562 leukemia): > 100 µM
TGI (UACC-257 melanoma): > 100 µM
TGI (IGROV1 ovarian): > 100 µM
TGI (MCF7 breast): > 100 µM
TGI (NCI-H460 lung): > 100 µM
TGI (OVCAR-5 ovarian): > 100 µM
TGI (HT29 colon): > 100 µM
TGI (OVCAR-3 ovarian): > 100 µM

CCCCCN(CCCCC)CCCNc1c2c(nc3ccc(Cl)cc13)CCCC2
GI50 (SK-OV-3 ovarian): 4.08 µM
TGI (SK-OV-3 ovarian): 13.8 µM
GI50 (COLO 205 colon): 1.28 µM
TGI (COLO 205 colon): 2.81 µM
GI50 (NCI-H23 lung): 2.12 µM
TGI (NCI-H23 lung): 6.73 µM
GI50 (HCT-15 colon): 2.58 µM
TGI (HCT-15 colon): 11.1 µM
GI50 (MDA-MB-435): 2.23 µM
TGI (MDA-MB-435): 6.56 µM
GI50 (RPMI-8226 leukemia): 1.98 µM
TGI (RPMI-8226 leukemia): 4.54 µM
GI50 (RXF 393 renal): 2.82 µM
TGI (RXF 393 renal): 7.95 µM
GI50 (TK-10 renal): 2.4 µM
TGI (TK-10 renal): 7.24 µM
GI50 (HOP-92 NSCLC): 1.19 µM
TGI (HOP-92 NSCLC): 5.63 µM
GI50 (SNB-19 CNS): 4.96 µM
TGI (SNB-19 CNS): 18.4 µM
GI50 (M14 melanoma): 1.8 µM
TGI (M14 melanoma): 3.41 µM
GI50 (SW-620 colon): 1.97 µM
TGI (SW-620 colon): 8.55 µM
GI50 (U251 CNS): 2.58 µM
TGI (U251 CNS): 7.37 µM
GI50 (786-0 renal): 3.91 µM
TGI (786-0 renal): 13.6 µM
GI50 (UACC-62 melanoma): 4.36 µM
TGI (UACC-62 melanoma): 16.8 µM
GI50 (DU-145 prostate): 3.71 µM
TGI (DU-145 prostate): 13.4 µM
GI50 (SNB-75 CNS): 2.38 µM
TGI (SNB-75 CNS): 11.9 µM
GI50 (NCI/ADR-RES ovarian): 2.15 µM
TGI (NCI/ADR-RES ovarian): 6.11 µM
GI50 (SK-MEL-28 melanoma): 3.74 µM
TGI (SK-MEL-28 melanoma): 13.8 µM
GI50 (UO-31 renal): 1.93 µM
TGI (UO-31 renal): 10.2 µM
GI50 (BT-549 breast): 11.2 µM
TGI (BT-549 breast): 23.4 µM
GI50 (ACHN renal): 3.48 µM
TGI (ACHN renal): 11.6 µM
GI50 (A549 NSCLC): 3.29 µM
TGI (A549 NSCLC): 10.8 µM
GI50 (LOX IMVI melanoma): 2.06 µM
TGI (LOX IMVI melanoma): 5.97 µM
GI50 (SF-295 CNS): 1.18 µM
TGI (SF-295 CNS): 3.05 µM
GI50 (PC-3 prostate): 2.46 µM
TGI (PC-3 prostate): 8.9 µM
GI50 (OVCAR-8 ovarian): 2.9 µM
TGI (OVCAR-8 ovarian): 8.88 µM
GI50 (T-47D breast): 2.6 µM
TGI (T-47D breast): 6.17 µM
GI50 (HCC-2998 colon): 2.48 µM
TGI (HCC-2998 colon): 8.89 µM
GI50 (SK-MEL-2 melanoma): 2.05 µM
TGI (SK-MEL-2 melanoma): 3.99 µM
GI50 (HCT-116 colon): 0.88 µM
TGI (HCT-116 colon): 2.9 µM
GI50 (MDA-MB-231 breast): 2.76 µM
TGI (MDA-MB-231 breast): 13.1 µM
GI50 (KM12 colon): 3.13 µM
TGI (KM12 colon): 10.3 µM
GI50 (MALME-3M melanoma): 2.54 µM
TGI (MALME-3M melanoma): 6.01 µM
GI50 (NCI-H226 lung): 2.05 µM
TGI (NCI-H226 lung): 6.71 µM
GI50 (SN12C renal): 2.92 µM
TGI (SN12C renal): 12.8 µM
GI50 (SF-268 CNS): 3.67 µM
TGI (SF-268 CNS): 14.5 µM
GI50 (OVCAR-4 ovarian): 2.05 µM
TGI (OVCAR-4 ovarian): 12 µM
GI50 (SK-MEL-5 melanoma): 1.82 µM
TGI (SK-MEL-5 melanoma): 3.34 µM
GI50 (SF-539 CNS): 3.6 µM
TGI (SF-539 CNS): 13.2 µM
GI50 (NCI-H522 lung): 1.74 µM
TGI (NCI-H522 lung): 3.86 µM
GI50 (A498 renal): 1.72 µM
TGI (A498 renal): 8.94 µM
GI50 (CAKI-1 renal): 2.18 µM
TGI (CAKI-1 renal): 6.83 µM
GI50 (EKVX NSCLC): 2.78 µM
TGI (EKVX NSCLC): 13.6 µM
GI50 (UACC-257 melanoma): 2.19 µM
TGI (UACC-257 melanoma): 4.52 µM
GI50 (IGROV1 ovarian): 1.49 µM
TGI (IGROV1 ovarian): 5.77 µM
GI50 (MCF7 breast): 2.46 µM
TGI (MCF7 breast): 8.34 µM
GI50 (NCI-H460 lung): 2.28 µM
TGI (NCI-H460 lung): 6.9 µM
GI50 (OVCAR-5 ovarian): 3.36 µM
TGI (OVCAR-5 ovarian): 15 µM
GI50 (HT29 colon): 0.501 µM
TGI (HT29 colon): 7.01 µM
GI50 (OVCAR-3 ovarian): 1.96 µM
TGI (OVCAR-3 ovarian): 4.36 µM

Source: PubChem BioAssay (NCI)
